By IC50 is commonly meant the midpoint of a concentration-inhibition curve.

Read-outs that look alike come from different tables or passages of the source. Bounds are passed on as bounds.

The values below come from patent US11584746B2, “Inhibitors of EGFR and methods of use thereof” (DANA-FARBER CANCER INSTITUTE, INC., priority 2018, dated 2023).

In test [1] the test system is EGFR L858R/T790M/C797S Ba/F3 cell line. Description: Ba/F3 cell proliferation (MTS assay), EGFR L858R/T790M/C797S. In kind it is cell-based, murine. The following applies: Mus musculus, BaF3, compound at 1 μM, read-out: Inhibition of proliferation, Activity (% DMSO control). The source says: The selectivity between wild-type EGFR and EGFR containing one or more mutations as described herein can also be measured using cellular proliferation assays where cell proliferation is dependent on kinase activity. For example, murine Ba/F3 cells transfected with a suitable version of wild-type EGFR (such as VIII; containing a WT EGFR kinase domain), or Ba/F3 cells transfected with L858R/T790M, Del/T790M/L718Q, L858R/T790M/L718Q, L858R/T790M/C797S, Del/T790M/C797S, L858R/T790M/I941R, or Exon 19 deletion/T790M can be used. Proliferation assays are performed at a range of inhibitor concentrations (e.g., 10 μM, 3 μM, 1.1 μM, 330 nM, 110 nM, 33 nM, I1 nM, 3 nM, 1 nM) and an EC50 is calculated.
(§1) The EGFR mutant L858R, Del E746_A750, L858R/T790M, DelE746_A750/T790M, L858R/T790M/C797S and Del/T790M/C797S Ba/F3 cells were previously described (Zhou et al., Nature 462, (2009), 1070-1074). All cell lines were maintained in RPMI 1640 (Cellgro; Mediatech Inc., Herndon, Calif.) supplemented with 10% FBS 100 units/mL penicillin, 100 units/mL streptomycin, and 2 mM glutamine. L858R cells were maintained in ACL-4 media (Invitrogen, Carlsbad, Calif.) supplemented with 5% FBS, 100 units/mL penicillin, 100 units/mL streptomycin, and 2 mM glutamine. The EGFR I941R mutation was introduced via site directed mutagenesis using the Quick Change Site-Directed Mutagenesis kit (Stratagene; La Jolla, Calif.) according to the manufacturer's instructions. All constructs were confirmed by DNA sequencing. The constructs were shuttled into the retroviral vector JP1540 using the BD Creator™ System (BD Biosciences). Ba/F3 cells were infected with retrovirus and according to standard protocols, as described previously (Zhou 2009). Stable clones were obtained by selection in puromycin (2 μg/ml).
Growth and inhibition of growth was assessed by MTS assay and was performed according to previously established methods (Zhou 2009). The MTS assay is a colorimetric method for determining the number of viable cells that is based on the bioreduction of MTS by cells to a formazan product that is soluble in cell culture medium and can be detected spectrophotometrically. Ba/F3 cells of different EGFR genotypes were exposed to treatment and the number of cells used per experiment determined empirically and has been previously established (Zhou 2009). All experimental points were set up in six wells and all experiments were repeated at least three times. […] The curves were fitted using a non-linear regression model with a sigmoidal dose response.
(Tetrazolium assays rely on reduction of a dye to a coloured formazan, in cell work by metabolically active cells.)

Test [2] deals with recombinant EGFR T790M/L858R kinase (Homo sapiens (Human), UniProt P00533, L858R/T790M). Description: HTRF-based EGFR biochemical assay. As to the method: EGFR biochemical assays are carried out using a homogeneous time-resolved fluorescence (HTRF) assay. The reaction mixtures contain biotin-Lck-peptide substrate, wild type, or mutant EGFR enzyme in reaction buffer. Enzyme concentrations are adjusted to accommodate varying kinase activity and ATP concentrations. Compounds of the present application are diluted into the assay mixture and IC50 values are determined using 12-point inhibition curves.
EGFR kinase proteins were purified by glutathione-affinity chromatography followed by size-exclusion chromatography after cleavage with TEV or thrombin to remove the GST fusion partner following established procedures. (Yun 2008; Yun 2007).
EGFR biochemical assays were carried out using a homogeneous time-resolved fluorescence (HTRF) assay as described previously. The reaction mixtures contained 1 μM biotin-Lck-peptide substrate, wild type or mutant EGFR enzyme in reaction buffer (50 mM HEPES pH 7.1, 10 mM MgCl2, 0.01% BSA. 1 mM TCEP and 0.1 mM Na3VO4) at a final volume of 10 μL. […] All reactions were carried out at room temperature in white ProxiPlate™ 384-well Plus plates (PerkinElmer) and were quenched with 5 μL of 0.2 M EDTA at 60 min. Five μL per well of the detection reagent containing 2.5 ng PT66K (Cis-bio) and 0.05 μg SAXL (Prozyme) were added, and the plates were then incubated at room temperature for 1 hour and read with an EnVision plate reader.
On the technique in general: TR-FRET usually uses a lanthanide donor and a delayed reading to cut background.

Test [3] deals with EGFR T790M/L858R Ba/F3 cell line. The test is described as follows: Ba/F3 cell proliferation (MTS assay), EGFR T790M/L858R. In kind it is cell-based, murine. The following applies: for inhibition at 1 µM: compound at 1 μM, EGFR T790M/L858R Ba/F3, read-out: Inhibition of proliferation, Activity (% DMSO control). The protocol: The selectivity between wild-type EGFR and EGFR containing one or more mutations as described herein can also be measured using cellular proliferation assays where cell proliferation is dependent on kinase activity. […] Proliferation assays are performed at a range of inhibitor concentrations (e.g., 10 μM, 3 μM, 1.1 μM, 330 nM, 110 nM, 33 nM, I1 nM, 3 nM, 1 nM) and an EC50 is calculated.
as §1, with “All” for “The EGFR mutant L858R, Del E746_A750, L858R/T790M, DelE746_A750/T790M, L858R/T790M/C797S and Del/T790M/C797S Ba/F3 cells were previously described (Zhou et al., Nature 462, (2009), 1070-1074). All”, “L858R cells were maintained in ACL-4 media (Invitrogen, Carlsbad, Calif.) supplemented with 5% FBS, 100 units/mL penicillin, 100 units/mL streptomycin, and 2 mM glutamine.” left out
Growth and inhibition of growth was assessed by MTS assay and was performed according to previously established methods (Zhou 2009). The MTS assay is a colorimetric method for determining the number of viable cells that is based on the bioreduction of MTS by cells to a formazan product that is soluble in cell culture medium and can be detected spectrophotometrically. […] All experimental points were set up in six wells and all experiments were repeated at least three times. […] The curves were fitted using a non-linear regression model with a sigmoidal dose response.

The mark [4] stands for this setting: Mus musculus, BaF3, read-out: Ba/F3 cellular activity (EC50) T790M/L858R.
Setting [5] is: read-out: Ba/F3 cellular activity (EC50) T790M/L858R + Cetuximab (1 μg/mL), presence of 1 μg/mL cetuximab.

Sequence of recombinant EGFR T790M/L858R kinase (P00533 696-1022 T790M/L858R): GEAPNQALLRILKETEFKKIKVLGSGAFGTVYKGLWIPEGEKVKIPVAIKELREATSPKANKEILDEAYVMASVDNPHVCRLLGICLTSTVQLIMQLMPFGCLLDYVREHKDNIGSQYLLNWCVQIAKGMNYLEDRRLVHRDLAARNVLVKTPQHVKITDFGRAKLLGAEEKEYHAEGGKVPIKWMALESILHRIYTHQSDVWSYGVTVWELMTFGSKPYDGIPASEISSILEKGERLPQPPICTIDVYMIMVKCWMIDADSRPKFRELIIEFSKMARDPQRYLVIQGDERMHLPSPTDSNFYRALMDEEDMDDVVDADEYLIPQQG

Take `O=C1c2cc(-c3ccc4[nH]ccc4c3)ccc2Nc2ccc(F)cc2N1Cc1ccccc1` [Compound I-2]: the inhibition at 1 µM is ≥ 75% in test [1] and ≥ 75% in test [3] (Mus musculus, BaF3). In addition, the IC50 in test [2] was < 250 nM. For the same molecule, the values for the EC50 in test [3] (setting [4]) and in test [3] (setting [5]) were ≥ 750 nM and < 250 nM, respectively.
Take `CN1CCC(n2cc(-c3ccc4c(c3)C(=O)N(Cc3cccc5cc[nH]c35)c3cc(F)ccc3N4)cn2)CC1` [Compound I-25]: the IC50 in test [2] was < 250 nM. For the same molecule, the EC50 in test [3] (setting [4]) and in test [3] (setting [5]) was ≥ 750 nM throughout.
Consider `O=C1c2cc(-c3ccc(N4CCNCC4)cc3)ccc2Nc2ccccc2N1Cc1ccccc1` [Compound I-11], for which the inhibition at 1 µM is ≥ 75% in test [1] and ≥ 75% in test [3] (Mus musculus, BaF3). In addition, the IC50 in test [2] is < 250 nM. For the same molecule, the EC50 in test [3] (setting [4]) was ≥ 750 nM; in test [3] (setting [5]), 250 to 500 nM.
For the molecule `CN1CCC(c2ccc(-c3ccc4c(c3)C(=O)N(Cc3ccccc3)c3cc(F)ccc3N4)cc2)CC1` [Compound I-17], the IC50 in test [2] was < 250 nM.
As for `O=C1c2cc(-c3ccc(-c4cn[nH]c4)cc3)ccc2Nc2ccc(F)cc2N1Cc1ccccc1` [Compound I-4], the inhibition at 1 µM in test [1] was ≥ 75%; in test [3] (Mus musculus, BaF3) it was ≥ 75%. For the same molecule, the IC50 in test [2] was < 250 nM. The EC50 in test [3] (setting [4]) is ≥ 750 nM; in test [3] (setting [5]) it was 250 to 500 nM.
Turning to `O=C1c2cc(-c3ccc(N4CCNCC4)cc3)ccc2Nc2ccncc2N1Cc1ccccc1` [Compound I-13], the EC50 in test [3] (setting [4]) and in test [3] (setting [5]) was ≥ 750 nM throughout.
As for `Nc1ccc2c(c1)N(Cc1ccccc1)C(=O)c1cc(-c3ccc4[nH]ccc4c3)ccc1N2` [Compound I-14], the EC50 in test [3] (setting [4]) and in test [3] (setting [5]) was ≥ 750 nM throughout.
`O=C1c2cc(-c3ccc(N4CCNCC4)cc3)ccc2Nc2ccc(F)cc2N1Cc1ccccc1` [Compound I-1, 10-Benzyl-8-fluoro-2-(4-(piperazin-1-yl)phenyl)-5,10-dihydro-11H-dibenzo[b,e][1,4]diazepin-11-one]: the inhibition at 1 µM was ≥ 75% in test [1] and ≥ 75% in test [3] (Mus musculus, BaF3). For the same molecule, the IC50 in test [2] is < 250 nM. Further, the EC50 in test [3] (setting [4]) was ≥ 750 nM; in test [3] (setting [5]), 500 to 750 nM.
On to `O=C1c2cc(-c3ccc4[nH]ccc4c3)ccc2Nc2ccc(F)cc2N1Cc1nccs1` [Compound I-10], for which the inhibition at 1 µM in test [1] is ≥ 75%; in test [3] (Mus musculus, BaF3), ≥ 75%. In addition, the EC50 in test [3] (setting [4]) and in test [3] (setting [5]) was ≥ 750 nM throughout.
As to `O=C1c2cc(-c3ccc4[nH]ccc4c3)ccc2Nc2ccc(F)cc2N1Cc1cccnc1` [Compound I-9], the inhibition at 1 µM in test [1] is ≥ 75%; in test [3] (Mus musculus, BaF3) it was ≥ 75%. In addition, the EC50 in test [3] (setting [4]) and in test [3] (setting [5]) was ≥ 750 nM throughout.
In the case of `CCC(=O)Nc1ccc2c(c1)N(Cc1ccccc1)C(=O)c1cc(-c3ccc4[nH]ccc4c3)ccc1N2` [Compound I-16], the EC50 in test [3] (setting [4]) and in test [3] (setting [5]) was 250 to 500 nM throughout.
As to `O=C1c2cc(-c3ccc(N4CCNCC4)cc3)ccc2Nc2ccc(F)cc2N1c1ccccc1` [Compound I-5], the inhibition at 1 µM was ≥ 75% in test [1] and ≥ 75% in test [3] (Mus musculus, BaF3). Further, the EC50 in test [3] (setting [4]) and in test [3] (setting [5]) was ≥ 750 nM in each case.
On to `CN1CCN(c2ccc(Oc3ccc4c(c3)C(=O)N(Cc3ccccc3)c3cc(F)ccc3N4)cc2)CC1` [Compound I-20, 10-benzyl-8-fluoro-2-(4-(4-methylpiperazin-1-yl)phenoxy)-5,10-dihydro-11H-dibenzo[b,e][1,4]diazepin-11-one], for which the IC50 in test [2] is < 250 nM. Moreover, the results for the EC50 in test [3] (setting [4]) and in test [3] (setting [5]) were ≥ 750 nM and 250 to 500 nM, respectively.
On to `CN1CCC(n2cc(-c3ccc4c(c3)C(=O)N(Cc3cccc(F)c3)c3cc(F)ccc3N4)cn2)CC1` [Compound I-22], for which the IC50 in test [2] is < 250 nM. Besides, the EC50 in test [3] (setting [4]) and in test [3] (setting [5]) was ≥ 750 nM in each case.
With `O=C1c2cc(-c3ccc(N4CCNCC4)cc3)ccc2Nc2ccc(F)cc2N1Cc1cccnc1` [Compound I-6], the inhibition at 1 µM is ≥ 75% in test [1] and ≥ 75% in test [3] (Mus musculus, BaF3). The EC50 in test [3] (setting [4]) and in test [3] (setting [5]) was ≥ 750 nM each time.
Regarding `O=C1c2cc(-c3ccc(N4CCNCC4)cc3)ccc2Nc2ccc(F)cc2N1Cc1cccc2cc[nH]c12` [Compound I-18], in test [2], the IC50 was < 250 nM. The results for the EC50 in test [3] (setting [4]) and in test [3] (setting [5]) were ≥ 750 nM and < 250 nM, respectively.
Consider `O=C1c2cc(Br)ccc2Nc2ccc(F)cc2N1Cc1ccccc1` [I-a], for which the IC50 in test [2] is < 250 nM. Further, the EC50 in test [3] (setting [4]) was ≥ 750 nM; in test [3] (setting [5]), 250 to 500 nM.
Regarding `O=C1c2cc(-c3ccc4[nH]ccc4c3)ccc2Nc2ccc(F)cc2N1c1ccccc1` [Compound I-8], the inhibition at 1 µM was ≥ 75% in test [1] and ≥ 75% in test [3] (Mus musculus, BaF3). In addition, the EC50 in test [3] (setting [4]) and in test [3] (setting [5]) was ≥ 750 nM in each case.
Turning to `CN1CCC(n2cc(-c3ccc4c(c3)C(=O)N(Cc3cc(F)cc(F)c3)c3cc(F)ccc3N4)cn2)CC1` [Compound I-24], the IC50 in test [2] is < 250 nM. Moreover, the EC50 in test [3] (setting [4]) and in test [3] (setting [5]) was ≥ 750 nM throughout.
For the molecule `CN1CCC(n2cc(-c3ccc4c(c3)C(=O)N(Cc3cccc(Cl)c3)c3cc(F)ccc3N4)cn2)CC1` [Compound I-23], the IC50 in test [2] is < 250 nM. The EC50 in test [3] (setting [4]) and in test [3] (setting [5]) was ≥ 750 nM throughout.
As for `CC(=O)Nc1ccc2c(c1)N(Cc1ccccc1)C(=O)c1cc(-c3ccc4[nH]ccc4c3)ccc1N2` [Compound I-15], the EC50 in test [3] (setting [4]) and in test [3] (setting [5]) was ≥ 750 nM each time.
On to `O=C1c2cc(-c3ccc(N4CCNCC4)cc3)ccc2Nc2ccc(F)cc2N1Cc1ccc2cc[nH]c2c1` [Compound I-19], for which the EC50 in test [3] (setting [4]) and in test [3] (setting [5]) was ≥ 750 nM throughout.
In the case of `O=C1c2cc(-c3ccc(N4CCNCC4)cc3)ccc2Nc2ncc(F)cc2N1Cc1ccccc1` [Compound I-12], the EC50 in test [3] (setting [4]) and in test [3] (setting [5]) was ≥ 750 nM in each case.
